Source: patent publication US20100190794A1, “Herbicidally Active Composition” (BASF SE, priority 2007, published 2010)

Assays:
AVEFA = assay: greenhouse test, pre-emergence treatment; format: in vivo, Avena fatua; settings: 6.25 g/ha a.s., Use Example 6
Excerpt: (§1) The culture containers used were plastic pots containing loamy sand with approximately 3.0% of humus as substrate. The seeds of the test plants were sown separately for each species.
(§2) For the pre-emergence treatment, the active compounds, suspended or emulsified in water, were applied directly after sowing by means of finely distributing nozzles. The containers were irrigated gently to promote germination and growth and subsequently covered with transparent plastic hoods until the plants had rooted. This cover caused uniform germination of the test plants unless this was adversely affected by the active compounds.
(§3) Depending on the species, the plants were kept at 10-25° C. and 20-35° C., respectively. The test period extended over 2 to 4 weeks. During this time, the plants were tended and their response to the individual treatments was evaluated.
Evaluation was carried out using a scale from 0 to 100. 100 means no emergence of the plants, or complete destruction of at least the above-ground parts, and 0 means no damage or normal course of growth. Good herbicidal activity is given at values of at least 70, and very good herbicidal activity is given at values of at least 85. […]
(§4) The test period extended over 20 or 21 days. During this time, the plants were tended, and their reactions to the treatment with active compound was monitored.
What was evaluated was the damage by the chemical compositions using a scale of from 0 to 100%, in comparison to the untreated control plants. […]
In the examples below, using the method of S. R. Colby (1967) “Calculating synergistic and antagonistic responses of herbicide combinations”, Weeds 15, p. 22 ff., the value E, which is expected if the activity of the individual active compounds is only additive, was calculated. […]
(§5) If the value found in experiments is higher than the value E calculated according to Colby, a synergistic effect is present.

POAAN = assay: greenhouse test, pre-emergence treatment; format: in vivo, Poa annua; settings: 6.25 g/ha a.s., Use Example 6
Excerpt: as §1, §2, §3
Evaluation was carried out using a scale from 0 to 100. 100 means no emergence of the plants, or complete destruction of at least the above-ground parts, and 0 means no damage or normal course of growth. Good herbicidal activity is given at values of at least 70, and very good herbicidal activity is given at values of at least 85.
The respective stated components A and B, and if appropriate, C were formulated as a 5% by weight or 10% by weight strength emulsion concentrate or a commercially available formulation of component B was used and, with addition of the amount of solvent system, introduced into the spray liquor used for applying the active compound. In the examples, the solvent used was water.
as §4
What was evaluated was the damage by the chemical compositions using a scale of from 0 to 100%, in comparison to the untreated control plants. 0 means no damage, and 100 means complete destruction of the plants.
In the examples below, using the method of S. R. Colby (1967) “Calculating synergistic and antagonistic responses of herbicide combinations”, Weeds 15, p. 22 ff., the value E, which is expected if the activity of the individual active compounds is only additive, was calculated.
where X=percent activity using active compound A at an application rate a; Y=percent activity using active compound B at an application rate b; E=expected activity (in %) by A+B at application rates a+b.
as §5

Row | SMILES | Herbicidal action in % after 20 days against AVEFA (AVEFA) | Herbicidal action in % after 20 days against POAAN (POAAN) | melting point
1 | CC(C)N(C)S(=O)(=O)NC(=O)c1cc(-n2c(=O)cc(C(F)(F)F)n(C)c2=O)c(F)cc1Cl [2-chloro-5-[3,6-dihydro-3-methyl-2,6-dioxo-4-(trifluoromethyl)-1(2H)-pyrimidinyl]-4-fluoro-N-[(isopropyl)methylsulfamoyl]benzamide, reference compound] | 0% | 0% | –
2 | CN1C(=O)C(Cc2ccccc2)N(C)C(=O)C1=Cc1c(C#N)ccc(F)c1F (stereo not drawn) [Example 15, 2-[5-Benzyl-1,4-dimethyl-3,6-dioxopiperazin-2-ylidenemethyl]-3,4-difluoro-benzonitrile] | – | – | 175 °C
